Earlier results as cited in US20050163856A1, “Abuse-resistant sustained-release opioid formulation” (Roxane Laboratories, Inc., priority 1999, published 2005).
Structures can show the parent of a compound that is named as a salt.

Settings: conventional tablet form

COc1ccc2c3c1O[C@H]1C(=O)CC[C@@]4(O)[C@@H](C2)N(C)CC[C@]314 [Oxycodone, oxycodone (dihydrohydroxycodeinone) hydrochloride]
half-time of absorption: about 0.4 hours
